The source of these data is patent publication US9050295B2, “Composition for treatment of tuberculosis” (ETH Zurich, priority 2007, dated 2015).

Molecules are shown by their SMILES. “Also recorded” adds a separate entry of the source.

One data set relates to E-ETR interaction. Put plainly: Specificity control ELISA, macrolide-dependent repressor E and operator ETR. In kind it is binding. As to conditions: ELISA set-up as FIG. 2B. As to the method:
To exclude that 2-phenylethyl butyrate indiscriminatingly modulates protein-DNA interactions the macrolide-dependent repressor-operator configuration is challenged with this compound in an identical ELISA set-up as shown in FIG. 2B. The E-ETR interaction is insensitive to 2-phenylethyl butyrate (PEB) and can exclusively be abolished in the presence of erythromycin (EM, 5 μg/ml).
The repressor protein E binds to its cognate operator sequence ETR and is released thereof in the presence of macrolide antibiotics like erythromycin as described in U.S. Pat. No. 7,273,723.
EthR-his6 is produced as previously described for E-his6 [Weber, C. C. et al., supra] with the exception that the biotinylated operator sequence (OethR) is incubated with a 100 μl streptavidin agarose bead suspension (Novagen, Madison, Wis., USA, cat. no. 69203) for 1 h at 4° C. while rotating.

The target of data set [1] is T1, EthR-VP16 binding to OethR (Mycobacterium bovis, UniProt Q7TVI1). Put plainly: cell-based. It counts as cell-based, M. tuberculosis.
T1 sequence (Q7TVI1 whole entry, looked up): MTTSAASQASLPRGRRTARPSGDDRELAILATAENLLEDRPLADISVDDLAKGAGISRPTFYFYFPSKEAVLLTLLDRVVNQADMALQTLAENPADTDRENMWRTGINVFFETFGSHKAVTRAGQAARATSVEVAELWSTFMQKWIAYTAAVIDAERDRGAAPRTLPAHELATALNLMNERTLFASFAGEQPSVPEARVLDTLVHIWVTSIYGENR
For the next data set, the target named is EthR-OethR interaction (Mycobacterium bovis, UniProt Q7TVI1). It counts as binding, M. tuberculosis. As to conditions: ELISA, E. coli cell lysate, OD450.
Chain of EthR-OethR interaction (Q7TVI1 whole entry, looked up): as above
The test system of a further data set is M. bovis BCG. In kind it is cell-based.
Data set [2] addresses T1, EthR-VP16 binding to OethR. In kind it is in vivo. The note with it: mice, 625 μl/kg injected 1 and 25 h post implantation, serum at 48 h.
The conditions of data set [3]: mouse, in vivo, ip.
The next data set has as its system M. tuberculosis H37Rv. In kind it is cell-based.
For the next data set, the system named is HEK-293. The note with it: HEK-293 with constitutive SEAP expression, 0-3.2 mM, 48 h.
[4] abbreviates: HEK-293 with EthR-based gene circuit, 0-3.2 mM, 48 h.

`CCCC(=O)OCCc1ccccc1` [2-Phenylethyl butyrate]: in the data set with E-ETR interaction (2-phenylethyl butyrate), the E-ETR interaction entry is on record as “insensitive”. Further, the IC50 in data set [1] was found to be 500 µM. The SEAP expression result in data set [1] (setting [4]) is given as “significant decrease in SEAP expression”. The “modulation of the EthR-OethR interaction” value at EthR-OethR interaction is “exclusively and specifically modulates the EthR-OethR interaction”. For the same compound, the “growth inhibition of M. bovis BCG in combination with ethionamide” value in the data set with M. bovis BCG (0.5 and 2 mM with sub-inhibitory ethionamide 0.25 and 0.5 μg/ml) is reported as “dose-dependently inhibited; also recorded: Synergistic effect”. In addition, in the data set with M. bovis BCG (without ethionamide), the “growth inhibitory effect alone, M. bovis BCG” value was “does not show any growth inhibitory effect”. The SEAP serum levels in data set [2] turned out to be 0.21±0.03 U/L. Besides, the “inflammation at the injection site” value in data set [3] was “no inflammation at the injection site”. Also, in the data set with M. tuberculosis H37Rv, the “growth inhibition of M. tuberculosis H37Rv in combination with ethionamide” value is given as “dose-dependently inhibited; also recorded: Synergistic effect” and the “growth inhibitory effect alone, M. tuberculosis H37Rv” value was “does not show any growth inhibitory effect”.
Take `CCC(=O)OCCCc1ccccc1` [3-Phenylpropyl propionate]: in data set [1] (setting [4]), the SEAP expression result is recorded as “significant decrease in SEAP expression”.
Turning to `CC(=O)CCc1ccccc1` [4-Phenyl-2-butanone], in data set [1] (setting [4]), the SEAP expression entry is given as “significant decrease in SEAP expression”. Besides, the cytotoxicity entry in the data set on HEK-293 was “does not correlate with cytotoxicity”.
For the compound `CC(=O)OCc1ccccc1` [Benzyl acetate], the SEAP expression result in data set [1] (setting [4]) is reported as “significant decrease in SEAP expression”.
On to `CCCCCCCCCCCCCCCCOC(=O)CCCCCCC` [Hexadecyl octanoate, reference compound], for which the SEAP expression entry in data set [1] (HEK-293 containing pWW489 and pWW491, 10 mM) is “fails to decrease SEAP expression”.
Take `CC[C@H]1OC(=O)[C@H](C)[C@@H](O[C@H]2C[C@@](C)(OC)[C@@H](O)[C@H](C)O2)[C@H](C)[C@@H](O[C@@H]2O[C@H](C)C[C@H](N(C)C)[C@H]2O)[C@](C)(O)C[C@@H](C)C(=O)[C@H](C)[C@@H](O)[C@]1(C)O` [erythromycin, reference compound]: the E-ETR interaction entry in the data set with E-ETR interaction (5 μg/ml) is recorded as “abolished”.
